This data set deals with rodent carcinogenicity bioassays, tumor incidence. Briefly: CCRIS carcinogenicity studies. Summed up:
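NCI-built, expert-reviewed records of carcinogenicity and related test outcomes (mutagenicity, tumor promotion/inhibition) compiled from published and report sources, historical span 1985-2011, not updated.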

Structures are written as SMILES. Activity calls are given as the source filed them. How the calls were made is not given here.

Experimental findings from PubChem BioAssay AID1259411 (Chemical Carcinogenesis Research Information System (CCRIS), 2018) are described below.

`c1ccc2c(c1)cc1ccc3cccc4ccc2c1c34`: the carcinogen call runs as follows: (Species: FISH, Strain/Sex: MT. SHASTA RAINBOW TROUT/MALE, FEMALE, Route: TRANSCHORIONIC INJECTION, Dose: 0, 0.09, 0.9, 9 UG IN DMSO ADMINISTERED IN OVO APPROXIMATELY 2 DAYS PRIOR TO HATCHING (STUDY DURATION: 1 YR), Dose: 0, 0.09, 0.9, 9 UG IN DMSO ADMINISTERED IN OVO APPROXIMATELY 2 DAYS PRIOR TO HATCHING (STUDY DURATION: 1 YR)) “inactive; negative”; (Species: FISH, Strain/Sex: MT. SHASTA RAINBOW TROUT/MALE, FEMALE, Route: TRANSCHORIONIC INJECTION, Dose: 0, 4.5, 9, 18 UG IN DMSO ADMINISTERED IN OVO APPROXIMATELY 2 DAYS PRIOR TO HATCHING, Dose: 0, 4.5, 9, 18 UG IN DMSO ADMINISTERED IN OVO APPROXIMATELY 2 DAYS PRIOR TO HATCHING, Tumor Site: Type of Lesion: LIVER: TUMOR) “active; positive”; (Species: FISH, Strain/Sex: RAINBOW TROUT/MALE, FEMALE, Route: INTRAPERITONEAL, Dose: 0, 1 MG IN 0.4 ML PROPYLENE GLYCOL 1/MO FOR 12 MO BEGINNING AT 10 MO OF AGE (STUDY DURATION: 18 MO), Tumor Site: Type of Lesion: LIVER: CARCINOMA) “active; positive”; (Species: FISH, Strain/Sex: RAINBOW TROUT/MALE, FEMALE, Route: ORAL, Dose: 0, 1000 PPM IN DIET FOR 18 MO (STUDY DURATION: 18 MO), Tumor Site: Type of Lesion: LIVER: CARCINOMA) “active; positive”; (Species: FISH, Strain/Sex: SHEEPSHEAD MINNOW/MALE, FEMALE, Route: IMMERSION, Dose: 0, 2, 30, 200 PPB APPROXIMATE CONCENTRATIONS ADMINISTERED 1/WK FOR 6 OR 24 HR FOR 1 OR 2 WK (STUDY DURATION: 39 WK), Dose: 0, 2, 30) “inactive; negative”; (Species: HAMSTER, Route: GAVAGE, Tumor Site: Type of Lesion: FORESTOMACH: PAPILLOMA, CARCINOMA) “active; positive”. The carcinogen call is, setting by setting: (Species: HAMSTER, Route: INTRATRACHEAL, Tumor Site: Type of Lesion: LUNG) “active; positive”; (Species: HAMSTER, Route: ORAL, Dose: 500 PPM IN DIET 4 D/WK FOR UP TO 14 MO, Tumor Site: Type of Lesion: ESOPHAGUS, FORESTOMACH, INTESTINES, Tumor Site: Type of Lesion: ESOPHAGUS, FORESTOMACH, INTESTINES) “active; positive”; (Species: HAMSTER, Route: SUBCUTANEOUS, Dose: 2.5 MG, 3 MO, Tumor Site: Type of Lesion: INJECTION SITE: SARCOMA) “active; positive”; (Species: HAMSTER, Route: SUBCUTANEOUS, Tumor Site: Type of Lesion: INJECTION SITE: SARCOMA) “active; positive”; (Species: HAMSTER, Strain/Sex: MALE,FEMALE, Route: INTRATRACHEAL, Dose: 0.25-2 MG, 1/WK FOR 30 WK, Tumor Site: Type of Lesion: RESPIRATORY TRACT) “active; positive”; (Species: HAMSTER, Strain/Sex: SYRIAN/FEMALE, Route: INTRATRACHEAL, Dose: 0, 1 MG IN 0.1 ML PHOSPHATE BUFFER 15/WK FOR 4 MO (STUDY DURATION: 443 D), Tumor Site: Type of Lesion: TRACHEA: PAPILLOMA OR CARCINOMA) “active; positive”. Also, the carcinogen call (Species: HAMSTER, Strain/Sex: SYRIAN/MALE,FEMALE, Route: SUBCUTANEOUS, Dose: 0.0005-80 MG, 10 DOSES, Tumor Site: Type of Lesion: INJECTION SITE: SARCOMA) is “active; positive”; the carcinogen call (Species: HAMSTER, Strain/Sex: SYRIAN/MALE, Route: GAVAGE, Dose: 2-5 MG 2/WK FOR 1-11 MO, Tumor Site: Type of Lesion: STOMACH: CARCINOMA, PAPILLOMA) was “active; positive”; the carcinogen call (Species: MONKEY, Route: INTRATRACHEAL, Dose: 3-15 MG, 1/WK, Tumor Site: Type of Lesion: LUNG: SQUAMOUS CARCINOMA) was “active; positive”; the carcinogen call (Species: MONKEY, Strain/Sex: TUPAIA GLIS/MALE,FEMALE, Route: SUBCUTANEOUS, Dose: 10 MG, SINGLE DOSE, Tumor Site: Type of Lesion: INJECTION SITE: SARCOMA) was “active; positive”; the carcinogen call (Species: MOUSE, Route: SUBCUTANEOUS, Tumor Site: Type of Lesion: INJECTION SITE: SARCOMA) was “active; positive”; the carcinogen call (Species: MOUSE, Strain/Sex: A/J/MALE, Route: INTRAPERITONEAL, Dose: 0, 10, 100 MG/KG BW IN TRICAPRYLIN ONCE AT 4-5 WK OF AGE (STUDY DURATION: 7-8 MO), Dose: 0, 10, 100 MG/KG BW IN TRICAPRYLIN ONCE AT 4-5 WK OF AGE (STUDY DURATION: 7-8 MO), Tumor Site: Type of Lesion: LUNG: TUMOR) is “active; positive”. Also, the carcinogen call runs as follows: (Species: MOUSE, Strain/Sex: B6C3F1/FEMALE, Route: ORAL, Dose: 0, 5, 25, 100 PPM IN DIET FOR 2 YR (STUDY DURATION: 2 YR), Dose: 0, 5, 25, 100 PPM IN DIET FOR 2 YR (STUDY DURATION: 2 YR), Tumor Site: Type of Lesion: FORESTOMACH: PAPILLOMA OR CARCINOMA, ESOPHAGUS: PAPILLOMA OR CARCINOMA, TONGUE: PAPILLOMA OR CARCINOMA, Tumor Site: Type of Lesion: FORESTOMACH: PAPILLOMA OR CARCINOMA, ESOPHAGUS: PAPILLOMA OR CARCINOMA, TONGUE: PAPILLOMA OR CARCINOMA) “active; positive”; (Species: MOUSE, Strain/Sex: B6C3F1/MALE, Route: INTRAPERITONEAL, Dose: 0, 0.005, 0.015 UMOL/G ONCE AT 12 DAYS OF AGE (STUDY DURATION: 10 MO), Dose: 0, 0.005, 0.015 UMOL/G ONCE AT 12 DAYS OF AGE (STUDY DURATION: 10 MO), Tumor Site: Type of Lesion: LIVER: HEPATOMA) “active; positive”; (Species: MOUSE, Strain/Sex: B6C3F1/MALE, Route: INTRAPERITONEAL, Dose: 0, 125, 250, 375 UG ADMINISTERED TO 15-DAY OLD MICE ONCE (STUDY DURATION: 52 WK), Dose: 0, 125, 250, 375 UG ADMINISTERED TO 15-DAY OLD MICE ONCE (STUDY DURATION: 52 WK), Tumor Site: Type of Lesion: LIVER: TUMOR) “active; positive”.
